{"source": "ChEMBL document CHEMBL3621141", "about": "“Discovery of indole-based tetraarylimidazoles as potent inhibitors of urease with low antilipoxygenase activity” (Eur J Med Chem, 2015)", "key": {"Urease": {"molecular_target": "Urease (Canavalia ensiformis, UniProt P07374)", "sequence (P07374 whole entry)": "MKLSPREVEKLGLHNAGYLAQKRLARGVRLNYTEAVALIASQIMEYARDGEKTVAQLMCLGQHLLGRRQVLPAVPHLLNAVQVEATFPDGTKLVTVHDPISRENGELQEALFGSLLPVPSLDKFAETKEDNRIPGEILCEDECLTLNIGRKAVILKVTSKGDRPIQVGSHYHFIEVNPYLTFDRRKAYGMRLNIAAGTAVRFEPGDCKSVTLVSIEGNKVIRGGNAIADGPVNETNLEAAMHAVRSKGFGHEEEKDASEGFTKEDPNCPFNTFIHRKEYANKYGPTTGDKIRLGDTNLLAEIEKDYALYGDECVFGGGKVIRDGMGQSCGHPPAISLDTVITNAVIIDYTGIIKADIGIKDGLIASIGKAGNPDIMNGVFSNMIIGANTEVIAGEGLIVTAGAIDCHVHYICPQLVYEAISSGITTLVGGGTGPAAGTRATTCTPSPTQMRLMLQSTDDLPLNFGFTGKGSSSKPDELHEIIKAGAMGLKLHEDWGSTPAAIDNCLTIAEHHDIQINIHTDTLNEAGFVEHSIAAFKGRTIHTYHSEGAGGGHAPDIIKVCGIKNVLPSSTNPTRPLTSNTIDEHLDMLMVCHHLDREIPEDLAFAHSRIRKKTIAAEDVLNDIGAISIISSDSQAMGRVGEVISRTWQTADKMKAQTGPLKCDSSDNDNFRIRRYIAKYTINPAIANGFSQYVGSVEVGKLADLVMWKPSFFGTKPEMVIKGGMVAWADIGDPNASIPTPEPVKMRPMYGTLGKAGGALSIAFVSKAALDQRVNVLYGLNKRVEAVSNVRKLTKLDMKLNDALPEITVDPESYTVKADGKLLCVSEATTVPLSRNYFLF", "assay": "Inhibition of jack beans urease assessed as hydrolysis of urea into ammonia preincubated for 10 mins followed by urea addition measured after 10 mins by Berthelot assay"}, "[1]": {"assay": "Inhibition of soybean LOX using linoleic acid as substrate preincubated for 10 mins followed by substrate addition measured after 6 mins by spectrophotometric analysis", "parameters": "species or system Glycine max"}, "Glycine max": {"test_system": "Glycine max", "assay": "Inhibition of soybean LOX using linoleic acid as substrate at 0.5 mM preincubated for 10 mins followed by substrate addition measured after 6 mins by spectrophotometric analysis"}, "[2]": {"molecular_target": "Urease (Canavalia ensiformis) (UniProt P07374)", "sequence (P07374 whole entry, looked up)": "as the sequence (P07374 whole entry) above", "assay": "Inhibition of jack beans urease assessed as hydrolysis of urea into ammonia at 0.5 mM preincubated for 10 mins followed by urea addition measured after 10 mins by Berthelot assay"}}, "note": "pIC50: −log10 of the molar value."}
{"smiles": "Brc1ccc(-c2[nH]c3ccccc3c2-c2nc(-c3ccccc3)c(-c3ccccc3)n2-c2ccccc2)cc1", "values": [{"measurement": "pIC50", "setting": "Urease", "result": 5.32}, {"measurement": "pIC50", "setting": "[1]", "result": 3.71}, {"measurement": "inhibition", "setting": "Glycine max", "result": 59.3, "unit": "%"}, {"measurement": "inhibition", "setting": "[2]", "result": 89.4, "unit": "%"}]}
{"smiles": "Cc1ccc(-n2c(-c3c(-c4ccccc4)[nH]c4ccc(Br)cc34)nc(-c3ccccc3)c2-c2ccccc2)cc1", "values": [{"measurement": "pIC50", "setting": "[1]", "result": 3.84}, {"measurement": "inhibition", "setting": "Glycine max", "result": 81.4, "unit": "%"}]}
{"smiles": "Fc1ccc(-n2c(-c3c(-c4ccc(Cl)cc4)[nH]c4ccccc34)nc(-c3ccccc3)c2-c2ccccc2)cc1", "values": [{"measurement": "pIC50", "setting": "Urease", "result": 6.36}, {"measurement": "pIC50", "setting": "[1]", "result": 4.05}, {"measurement": "inhibition", "setting": "Glycine max", "result": 84.5, "unit": "%"}, {"measurement": "inhibition", "setting": "[2]", "result": 85.6, "unit": "%"}]}
{"smiles": "Fc1ccc(-n2c(-c3c(-c4ccc(Br)cc4)[nH]c4ccccc34)nc(-c3ccccc3)c2-c2ccccc2)cc1", "values": [{"measurement": "pIC50", "setting": "Urease", "result": 4.92}, {"measurement": "pIC50", "setting": "[1]", "result": 3.79}, {"measurement": "inhibition", "setting": "Glycine max", "result": 87.8, "unit": "%"}, {"measurement": "inhibition", "setting": "[2]", "result": 86.7, "unit": "%"}]}
{"smiles": "Fc1ccc(-n2c(-c3c(-c4ccc(C(F)(F)F)cc4)[nH]c4ccccc34)nc(-c3ccccc3)c2-c2ccccc2)cc1", "values": [{"measurement": "pIC50", "setting": "Urease", "result": 6.80}, {"measurement": "pIC50", "setting": "[1]", "result": 3.97}, {"measurement": "inhibition", "setting": "Glycine max", "result": 80.2, "unit": "%"}, {"measurement": "inhibition", "setting": "[2]", "result": 85.2, "unit": "%"}]}
{"smiles": "Cc1ccc(-n2c(-c3c(-c4ccc(C(F)(F)F)cc4)[nH]c4ccccc34)nc(-c3ccccc3)c2-c2ccccc2)cc1", "values": [{"measurement": "pIC50", "setting": "Urease", "result": 6.92}, {"measurement": "pIC50", "setting": "[1]", "result": 4.08}, {"measurement": "inhibition", "setting": "Glycine max", "result": 90.3, "unit": "%"}, {"measurement": "inhibition", "setting": "[2]", "result": 79.7, "unit": "%"}]}
{"smiles": "Brc1ccc2[nH]c(-c3ccccc3)c(-c3nc(-c4ccccc4)c(-c4ccccc4)n3-c3ccccc3)c2c1", "values": [{"measurement": "pIC50", "setting": "[1]", "result": 3.87}, {"measurement": "inhibition", "setting": "Glycine max", "result": 97.2, "unit": "%"}]}
{"smiles": "FC(F)(F)c1ccc(-c2[nH]c3ccccc3c2-c2nc(-c3ccccc3)c(-c3ccccc3)n2-c2ccccc2)cc1", "values": [{"measurement": "pIC50", "setting": "[1]", "result": 3.93}, {"measurement": "inhibition", "setting": "Glycine max", "result": 86.2, "unit": "%"}]}
{"smiles": "COc1ccc(-n2c(-c3c(-c4ccccc4)[nH]c4ccc(Br)cc34)nc(-c3ccccc3)c2-c2ccccc2)cc1", "values": [{"measurement": "pIC50", "setting": "Urease", "result": 5.34}, {"measurement": "pIC50", "setting": "[1]", "result": 3.58}, {"measurement": "inhibition", "setting": "Glycine max", "result": 57.5, "unit": "%"}, {"measurement": "inhibition", "setting": "[2]", "result": 88.7, "unit": "%"}]}
{"smiles": "O=c1cc(-c2ccccc2)oc2cc(O)c(O)c(O)c12", "note": "[BAICALEIN]", "values": [{"measurement": "pIC50", "setting": "[1]", "result": 4.65}, {"measurement": "inhibition", "setting": "Glycine max", "result": 93.7, "unit": "%"}]}
{"smiles": "Clc1ccc(-c2[nH]c3ccccc3c2-c2nc(-c3ccccc3)c(-c3ccccc3)n2-c2ccccc2)cc1", "values": [{"measurement": "pIC50", "setting": "Urease", "result": 6.43}, {"measurement": "pIC50", "setting": "[1]", "result": 3.56}, {"measurement": "inhibition", "setting": "Glycine max", "result": 58.3, "unit": "%"}, {"measurement": "inhibition", "setting": "[2]", "result": 80.3, "unit": "%"}]}
{"smiles": "Brc1ccc(-n2c(-c3c(-c4ccccc4)[nH]c4ccc(Br)cc34)nc(-c3ccccc3)c2-c2ccccc2)cc1", "values": [{"measurement": "pIC50", "setting": "Urease", "result": 6.82}, {"measurement": "pIC50", "setting": "[1]", "result": 3.75}, {"measurement": "inhibition", "setting": "Glycine max", "result": 78.5, "unit": "%"}, {"measurement": "inhibition", "setting": "[2]", "result": 93.2, "unit": "%"}]}
{"smiles": "Clc1ccc(-n2c(-c3c(-c4ccccc4)[nH]c4ccc(Br)cc34)nc(-c3ccccc3)c2-c2ccccc2)cc1", "values": [{"measurement": "pIC50", "setting": "Urease", "result": 5.33}, {"measurement": "pIC50", "setting": "[1]", "result": 4.00}, {"measurement": "inhibition", "setting": "Glycine max", "result": 83.2, "unit": "%"}, {"measurement": "inhibition", "setting": "[2]", "result": 87.8, "unit": "%"}]}
{"smiles": "COc1ccc(-n2c(-c3c(-c4ccc(Br)cc4)[nH]c4ccccc34)nc(-c3ccccc3)c2-c2ccccc2)cc1", "values": [{"measurement": "pIC50", "setting": "Urease", "result": 4.54}, {"measurement": "pIC50", "setting": "[1]", "result": 3.69}, {"measurement": "inhibition", "setting": "Glycine max", "result": 61.7, "unit": "%"}, {"measurement": "inhibition", "setting": "[2]", "result": 85.2, "unit": "%"}]}
{"smiles": "Brc1ccc(-c2[nH]c3ccccc3c2-c2nc(-c3ccccc3)c(-c3ccccc3)n2-c2ccc(Br)cc2)cc1", "values": [{"measurement": "pIC50", "setting": "Urease", "result": 4.95}, {"measurement": "pIC50", "setting": "[1]", "result": 3.76}, {"measurement": "inhibition", "setting": "Glycine max", "result": 61.1, "unit": "%"}, {"measurement": "inhibition", "setting": "[2]", "result": 87.8, "unit": "%"}]}
{"smiles": "FC(F)(F)c1ccc(-c2[nH]c3ccccc3c2-c2nc(-c3ccccc3)c(-c3ccccc3)n2-c2ccc(Cl)cc2)cc1", "values": [{"measurement": "pIC50", "setting": "Urease", "result": 5.32}, {"measurement": "pIC50", "setting": "[1]", "result": 3.67}, {"measurement": "inhibition", "setting": "Glycine max", "result": 62.1, "unit": "%"}, {"measurement": "inhibition", "setting": "[2]", "result": 70.3, "unit": "%"}]}
